Data taken from ChEMBL document CHEMBL1201862, “PubChem BioAssay data set” (2004).
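Assay format: 96-well plates, 48-hour exposure. GI50: concentration for 50% inhibition of growth.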 Calls of active or inactive are those of the source. Cut-off read from the data, not from the text of the source: active = GI50 up to about 1.1 µM and inactive = higher.

How the values were obtained:
Assay in all cases: NCI tumour cell line growth inhibition, 48 h
[1] = test system: 786-0
[2] = test system: A498
[3] = test system: A549
[4] = test system: ACHN
[5] = test system: CAKI-1
[6] = test system: CCRF-CEM
[7] = test system: COLO 205
[8] = test system: DLD-1
[9] = test system: DMS-114
[10] = test system: DMS-273
[11] = test system: EKVX
[12] = test system: HCC 2998
[13] = test system: HCT-116
[14] = test system: HCT-15
[15] = test system: HL-60
[16] = test system: HOP-18
[17] = test system: HOP-62
[18] = test system: HOP-92
[19] = test system: HT-29
[20] = test system: IGROV-1
[21] = test system: K562
[22] = test system: KM-20L2
[23] = test system: KM12
[24] = test system: LOX IMVI
[25] = test system: LXFL 529
[26] = test system: M14
[27] = test system: M19-MEL
[28] = test system: MOLT-4
[29] = test system: Malme-3M
[30] = test system: NCI-H226
[31] = test system: NCI-H23
[32] = test system: NCI-H460
[33] = test system: NCI-H522
[34] = test system: OVCAR-3
[35] = test system: OVCAR-4
[36] = test system: OVCAR-5
[37] = test system: OVCAR-8
[38] = test system: RPMI-8226
[39] = test system: RXF 393
[40] = test system: RXF 631
[41] = test system: SF-268
[42] = test system: SF-295
[43] = test system: SK-MEL-28
[44] = test system: SK-MEL-2
[45] = test system: SK-MEL-5
[46] = test system: SK-OV-3
[47] = test system: SN12C
[48] = test system: SNB-19
[49] = test system: SNB-75
[50] = test system: SNB-78
[51] = test system: SR
[52] = test system: SW-620
[53] = test system: TK-10
[54] = test system: U-251
[55] = test system: UACC-257
[56] = test system: UACC-62
[57] = test system: UO-31
[58] = test system: SF-539
[59] = test system: XF498

Measured: GI50

CCN(CC)CCCC(C)Nc1c2cc(OC)cc(C)c2nc2c(C)c(Cl)ccc12 (centres undefined)
1780 nM: [14]
inactive: [1] 1640 nM | [2] 2430 nM | [3] 1890 nM | [4] 1690 nM | [5] 1920 nM | [6] 1470 nM | [7] 1640 nM | [8] 1530 nM | [9] 1930 nM | [10] 1710 nM | [11] 1850 nM | [12] 1630 nM | [13] 1860 nM | [15] 2150 nM | [16] 1560 nM | [17] 1660 nM | [18] 1220 nM | [19] 1620 nM | [20] 1670 nM | [21] 1830 nM | [22] 1860 nM | [23] 1640 nM | [24] 2020 nM | [25] 1580 nM | [26] 2020 nM | [27] 1750 nM | [28] 1740 nM | [29] 1850 nM | [30] 1820 nM | [31] 1480 nM | [32] 1800 nM | [33] 1670 nM | [34] 1790 nM | [35] 1710 nM | [36] 2100 nM | [37] 1780 nM | [38] 2620 nM | [39] 2090 nM | [40] 1790 nM | [41] 1970 nM | [42] 2220 nM | [43] 1950 nM | [44] 1870 nM | [45] 1870 nM | [46] 1670 nM | [47] 1570 nM | [48] 1680 nM | [49] 1680 nM | [50] 2140 nM | [51] 2010 nM | [52] 1850 nM | [53] 1730 nM | [54] 1850 nM | [55] 1810 nM | [56] 1790 nM | [57] 1710 nM

CC1=C(O)C(=O)C2C(=O)C1C1Cc3ccccc3C21 (centres undefined)
inactive: [1] > 100000 nM | [2] > 100000 nM | [3] > 100000 nM | [4] > 100000 nM | [5] > 100000 nM | [6] > 100000 nM | [7] > 100000 nM | [8] > 100000 nM | [10] > 100000 nM | [11] > 100000 nM | [12] > 100000 nM | [15] > 100000 nM | [17] > 100000 nM | [18] > 100000 nM | [19] > 100000 nM | [20] > 100000 nM | [21] > 100000 nM | [23] > 100000 nM | [24] > 100000 nM | [25] > 100000 nM | [26] > 100000 nM | [27] > 100000 nM | [28] > 100000 nM | [29] > 100000 nM | [30] > 100000 nM | [31] > 100000 nM | [33] > 100000 nM | [34] > 100000 nM | [35] > 100000 nM | [36] > 100000 nM | [37] > 100000 nM | [38] > 100000 nM | [39] > 100000 nM | [40] > 100000 nM | [41] > 100000 nM | [42] > 100000 nM | [58] > 100000 nM | [43] > 100000 nM | [44] > 100000 nM | [45] > 100000 nM | [46] > 100000 nM | [48] > 100000 nM | [49] 60500 nM | [50] > 100000 nM | [51] > 100000 nM | [52] > 100000 nM | [53] > 100000 nM | [54] > 100000 nM | [56] > 100000 nM | [57] > 100000 nM | [59] > 100000 nM
> 100000 nM: [14]
